How the values were obtained:
Assay in all cases: normalised viability (% of control), CellTiter-Blue; higher = more viable cells (about 100 = DMSO control)
Conditions in all cases: incubation time: 72 h
CAL-148 = system: CAL-148
Method: (§1)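 DSRT, CellTiter-Blue viability, 72 h incubation. Signal is normalised to DMSO and benzethonium chloride controls. Value is the normalised response at dose 9.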

CAL-51 = system: CAL-51
Method: as §1

CAL-85-1 = system: CAL-85-1
Method: as §1

DU-4475 = system: DU-4475
Method: as §1

HDQ-P1 = system: HDQ-P1
Method: as §1

MDA-MB-453 = system: MDA-MB-453
Method: as §1

Compound | normalised viability (CAL-148) | normalised viability (CAL-51) | normalised viability (CAL-85-1) | normalised viability (DU-4475) | normalised viability (HDQ-P1) | normalised viability (MDA-MB-453)
CN1CC[C@H](c2c(O)cc(O)c3c(=O)cc(-c4ccccc4Cl)oc23)[C@H](O)C1 [Alvocidib] (10000 nM) | 17% | 5.62% | 2.66% | 1.22% | 16.4% | 10.1%
Nc1nc(Cl)nc2c1ncn2[C@H]1C[C@H](O)[C@@H](CO)O1 [Cladribine] (1000 nM) | 52.4% | 69.8% | 67.8% | 40.3% | 104% | 73.7%
Nc1ccn([C@@H]2O[C@H](CO)[C@@H](O)[C@@H]2O)c(=O)n1 [Cytarabine] (10000 nM) | 29.1% | 14.7% | 68.2% | 22.1% | 87.4% | 58.7%
Cc1c2oc3c(C)ccc(C(=O)N[C@@H]4C(=O)N[C@H](C(C)C)C(=O)N5CCC[C@H]5C(=O)N(C)CC(=O)N(C)[C@@H](C(C)C)C(=O)O[C@@H]4C)c3nc-2c(C(=O)N[C@@H]2C(=O)N[C@H](C(C)C)C(=O)N3CCC[C@H]3C(=O)N(C)CC(=O)N(C)[C@@H](C(C)C)C(=O)O[C@@H]2C)c(N)c1=O [Dactinomycin] (1000 nM) | 12% | 4.61% | 2.21% | -0.64% | 16.8% | 5.82%
COc1cccc2c1C(=O)c1c(O)c3c(c(O)c1C2=O)C[C@@](O)(C(=O)CO)C[C@@H]3O[C@H]1C[C@H](N)[C@H](O)[C@H](C)O1 [Doxorubicin] (1000 nM) | -1.37% | 3.87% | 7.31% | -2.19% | 13.7% | 3.55%
Cc1ccc(F)c(NC(=O)Nc2ccc(-c3cccc4[nH]nc(N)c34)cc2)c1 [Linifanib] (1000 nM) | 80.2% | 98.1% | 96.8% | 99.5% | 120% | 111%
S=c1[nH]cnc2nc[nH]c12 [Mercaptopurine] (10000 nM) | 86.6% | 75.1% | 80.3% | 102% | 90.3% | 100%
Clc1ccc(C(c2ccccc2Cl)C(Cl)Cl)cc1 (stereo unspecified) [Mitotane] (10000 nM) | 110% | 109% | 89.7% | 97.4% | 109% | 89.7%
COc1cccc2cc(-c3nc([C@H]4CC[C@H](C(=O)O)CC4)n4ncnc(N)c34)[nH]c12 [OSI-027] (10000 nM) | 10.6% | 14.5% | 25.2% | 30.1% | 20.2% | 12.5%
OC[C@H]1O[C@@H](n2cnc3c2N=CNC[C@H]3O)C[C@@H]1O [Pentostatin] (10000 nM) | 124% | 88.3% | 108% | 103% | 99.7% | 106%
N#CC[C@H](C1CCCC1)n1cc(-c2ncnc3[nH]ccc23)cn1 [Ruxolitinib] (10000 nM) | 106% | 87.3% | 115% | 113% | 107% | 66.1%
C=CC[C@@H]1/C=C(\C)C[C@H](C)C[C@H](OC)[C@H]2O[C@@](O)(C(=O)C(=O)N3CCCC[C@H]3C(=O)O[C@H](/C(C)=C/[C@@H]3CC[C@@H](O)[C@H](OC)C3)[C@H](C)[C@@H](O)CC1=O)[C@H](C)C[C@@H]2OC [Tacrolimus] (10000 nM) | 115% | 95% | 100% | 107% | 136% | 98.6%
C=CCNC1=C2C[C@@H](C)C[C@H](OC)[C@H](O)[C@@H](C)/C=C(\C)[C@H](OC(N)=O)[C@@H](OC)/C=C\C=C(/C)C(=O)NC(=CC1=O)C2=O [Tanespimycin] (10000 nM) | 9.8% | 4.68% | 21.8% | -0.27% | 24.8% | 3.61%
C[C@]1(c2nc3c(C(N)=O)cccc3[nH]2)CCCN1 [Veliparib] (10000 nM) | 94.9% | 94.7% | 78.9% | 81% | 93.2% | 94.9%
CC[C@]1(O)C[C@@H]2CN(CCc3c([nH]c4ccccc34)[C@@](C(=O)OC)(c3cc4c(cc3OC)N(C)[C@H]3[C@@](O)(C(=O)OC)[C@H](OC(C)=O)[C@]5(CC)C=CCN6CC[C@]43[C@@H]65)C2)C1 [Vinblastine] (1000 nM) | 22.7% | 11.4% | 44.6% | 7.08% | 39.6% | 36.3%
CS(=O)(=O)c1ccc(C(=O)Nc2ccc(Cl)c(-c3ccccn3)c2)c(Cl)c1 [Vismodegib] (10000 nM) | 81.6% | 109% | 104% | 123% | 89.3% | 86.5%

Source: the supplement of paper PMC4862054
